Assay results as given in patent US6384075B1, “Bicyclic amino derivatives and PGD2, antagonist containing them” (Shionogi & Co., Ltd., priority 1995, dated 2002).

Key:
PGD2 receptor = target: T1, PGD2 receptor (Homo sapiens, UniProt Q13258); experiment: Binding to PGD2 receptor ([3H]PGD2, human platelet membrane fraction); conditions: 5 nM [3H]PGD2, 4° C., 90 min, read-out: Activity (binding-inhibitory activity, concentration required for 50% inhibition, IC50)
T1 construct: Preparation of Human Platelet Membrane Fraction; from tissue; host or cells: human platelets (membrane fraction) from blood of healthy volunteers
T1 sequence (Q13258 1-359): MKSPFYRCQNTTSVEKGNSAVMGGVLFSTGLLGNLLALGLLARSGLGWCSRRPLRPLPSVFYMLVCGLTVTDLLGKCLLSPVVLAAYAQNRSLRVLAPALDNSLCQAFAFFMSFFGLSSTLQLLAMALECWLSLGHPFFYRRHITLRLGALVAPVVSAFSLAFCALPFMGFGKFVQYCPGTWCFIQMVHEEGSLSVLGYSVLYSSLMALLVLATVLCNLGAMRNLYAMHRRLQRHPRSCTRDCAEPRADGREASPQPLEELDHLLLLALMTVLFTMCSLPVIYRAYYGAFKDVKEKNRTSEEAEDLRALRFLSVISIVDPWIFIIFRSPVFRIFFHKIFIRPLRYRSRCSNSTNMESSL
Procedure: (1) Preparation of Human Platelet Membrane Fraction
Blood sample was obtained using a plastic syringe containing 3.8% sodium citrate from a venous of healthy volunteers (adult male and female), put into a plastic test tube and mixed gently by inversion. The sample was then centrifuged at 1800 rpm, 10 min at room temperature, and supernatant containing PRP (platelet rich plasma) was collected. The PRP was re-centrifuged at 2300 rpm, 22 min at room temperature to obtain platelets. The platelets were homogenized using a homogenizer (Ultra-Turrax) followed by centrifugation 3 times at 20,000 rpm, 10 min at 4° C. to obtain platelet membrane fraction. After protein determination, the membrane fraction was adjusted to 2 mg/ml and preserved in a refrigerator at […] until use.
(2) Binding to PGD2 Receptor
To a binding-reaction solution (50 mM Tris/HCl, pH 7.4, 5 mM MgCl2) (0.2 ml) were added human platelet membrane fraction (0.1 mg) and 5 nM [3H]PGD2 (115 Ci/mmol), and reacted at 4° C. for 90 min. After the reaction completed, the reaction mixture was filtered through the glass fiber filter paper, washed several times with cooled saline, and measured radioactivity retained on the filter paper. The specific binding was calculated by subtracting the non-specific binding (the binding in the presence of 10 μM PGD2) from the total binding. […]

[1] = system: nasal cavity resistance (nasal occlusion model); experiment: Nasal occlusion model: nasal cavity resistance after antigen (OVA) exposure in sensitized guinea pig; type: in vivo; conditions: 1 mg/kg (i.v.), 10 min before antigen exposure
Procedure: Experiment Using Nasal Occlusion Model
The method used for measuring the nasal cavity resistance and evaluating the anti-nasal occlusion using a guinea pig are described below.
A 1% ovalbumin (OVA) solution was treated with ultrasonic nebulizer to obtain an aerosol. Hartley male guinea pig was sensitized by inhaling twice the aerosol for 10 min at one-week interval. Seven-day after the sensitization, the guinea pig was exposed to an antigen to initiate the reaction. Then the trachea was incised under the anesthesia with pentobarbital (30 mg/kg, i.p.) and cannulas were inserted into the trachea at the pulmonary and nasal cavity sides. The canal inserted at the pulmonary side was connected with an artificial respirator that provides 4 ml air 60 times/min. After arresting the spontaneous respiration of a guinea pig with Garamin (2 mg/kg, i.v.), air was supplied to the snout side with an artificial respirator at the frequency of 70 times/min, and the flow rate of 4 ml air/time, and the atmospheric pressure required for the aeration was measured by the use of a transducer fitted at the branch. The measurement was used as a parameter of the nasal cavity resistance. The exposure of an antigen was carried out by generating aerosol of 3% OVA solution for 3 min between the respirator and nasal cavity cannula. The test drug was injected intravenously 10 min before the antigen exposure. […]

IC50 (PGD2 receptor): 130 nM
SMILES: O=C(O)CCC/C=C\C[C@@H]1[C@H]2CC[C@H](C2)[C@H]1NS(=O)(=O)c1ccc2oc3ccccc3c2c1 [1a-2, (Z)-7-[(1S,2R,3R,4R)-3-(2-dibezofuryl)sulfonylaminobicyclo[2.2.1]hept-2-yl]-5-heptenoic acid]
Inhibition Rate (%) of nasal cavity resistance (AUC 0-30 min vs vehicle) [1]: 82%
